Source: publication PMC4122495, “Small Molecule Deubiquitinase Inhibitors Promote Macrophage Anti-Infective Capacity” (PLoS ONE, 2014)

Columns and labels:
[1] = tested on: RAW264.7 cells; assay: WST-1 cell viability assay, conditions mimicking the bacterial infection protocol; assay type: cell-based, murine; conditions: 2.5 µM, 0.5 h pre-treatment, then 8 h
Procedure: For cell viability assays in conditions that mimicked the bacterial infection protocol, RAW264.7 cells were cultured at an initial density of 4×10^6 cells per 96-well plate. Cells were treated with 2.5 or 5 µM DUB inhibitors dissolved in DMSO for 0.5 h or 1 h or with equivalent volume of DMSO. DUB inhibitors were removed after treatment by washing three times with PBS, and cells were incubated in culture media for 6.5 h at 37°C. The WST-1 reagent (Roche, San Francisco, CA), which measures mitochondrial dehydrogenase activity, was diluted 1 in 10 in media and cells were incubated at 37°C for an additional 1.5 h. The optical density at 440 nm (OD440) and 600 nm (OD600) was determined and results were normalized to DMSO-treated cells.

[2] = tested on: ubiquitinated proteins (DUB activity) in RAW264.7 cells; assay: Anti-ubiquitin immunoblot of RAW264.7 whole-cell lysates; assay type: cell-based, murine; conditions: 2.5 µM, uninfected RAW264.7 cells, treatment 0.5 h to 6 h
Procedure: RAW264.7 cells were cultured at an initial density of 4×10^6 cells per 6-well plate and allowed to adhere overnight. Macrophages were treated with 2.5 µM compound 9 for the indicated period of time. To obtain whole-cell lysates, cells were lysed in cell lysis buffer (10 mM Tris pH 8, 150 mM NaCl, 1% NP-40, 10 mM EDTA pH 8, 1 mM DTT and 1X protease inhibitors), incubated for 15 min on ice and briefly sonicated. Samples were diluted in 5X concentrated sample buffer containing β-mercaptoethanol and denatured at 95°C for 10 min. The samples were separated by SDS-PAGE on an 8% acrylamide gel and transferred to polyvinyldene fluoride membrane (PVDF, Millipore). Immunodetection was performed using an anti-ubiquitin monoclonal antibody (P4D1 clone, Santa Cruz), according to manufacturer’s instructions.

## CCCC(NC(=O)/C(C#N)=C/c1nc(Cl)ccc1Cl)c1ccc(OCCN2CCOCC2)cc1 (centres unmarked) [Compound 9]
[1]
  cellular toxicity (WST-1 viability): little cellular toxicity
[2]
  accumulation of ubiquitinated proteins (immunoblot): ubiquitinated proteins accumulated as soon as 0.5 h
